Measured values published in ChEMBL document CHEMBL1157309, “Sensitivity of cardiac background inward rectifying K+ outward current (IK1) to the alkaloids lepadiformines A, B, and C” (J Nat Prod, 2006).
Counter-ions that a name gives are not always drawn. The source made the active and inactive calls. The rule behind the calls is not given here.

What was measured:
Pelophylax lessonae [1] = experiment: Inhibition of Kir channel in frog sino-atrial myocytes assessed as blockade of barium and caesium-sensitive inward rectifying potassium outward current potential at 3.3 uM by whole cell patch clamp method; format: cell-based; settings: Cardiac atrium
Pelophylax lessonae [2] = experiment: Inhibition of Kir channel in frog sino-atrial myocytes assessed as blockade of barium and caesium-sensitive inward rectifying potassium outward current potential at 2.5 uM by whole cell patch clamp method; format: cell-based; settings: Cardiac atrium
[3] = Inhibition of Kir channel in frog sino-atrial myocytes assessed as half-maximal response for blockade of barium and caesium-sensitive inward rectifying potassium outward current by whole cell patch clamp method; format: cell-based, Pelophylax lessonae, Cardiac atrium
Pelophylax lessonae [4] = experiment: Inhibition of Kir channel in frog sino-atrial myocytes assessed as blockade of barium and caesium-sensitive inward rectifying potassium outward current by whole cell patch clamp method; format: cell-based; settings: Cardiac atrium
Pelophylax lessonae [5] = experiment: Inhibition of Kir channel in frog sino-atrial myocytes assessed as blockade of barium and caesium-sensitive inward rectifying potassium outward current at 1.6 uM by whole cell patch clamp method; format: cell-based; settings: Cardiac atrium
Pelophylax lessonae [6] = experiment: Inhibition of Kir channel in frog sino-atrial myocytes assessed as blockade of barium and caesium-sensitive inward rectifying potassium outward current potential at 4.1 uM by whole cell patch clamp method; format: cell-based; settings: Cardiac atrium

Compound	Activity (Pelophylax lessonae [1])	inhibition (Pelophylax lessonae [2])	Kd [3]	Activity (Pelophylax lessonae [4])	Activity (Pelophylax lessonae [5])	Activity (Pelophylax lessonae [6])
CCCC[C@@H]1CC[C@@H]2CCCC[C@]23CCCN13	inactive	8.4%	–	–	–	–
CCCCCC[C@@H]1CC[C@@H]2CCCC[C@]23CC[C@@H](CO)N13 [LEPADIFORMINE A HYDROCHLORIDE]	–	–	1.42 µM	Dose-dependent effect	Active	–
CCCC[C@@H]1CC[C@@H]2CCCC[C@]23CC[C@@H](CO)N13 [LEPADIFORMINE B HYDROCHLORIDE]	–	54%	1.56 µM	–	–	Active
